# Results: patent US9400281B2, “Method of screening of therapeutic agents for K-Ras mutant driven cancers” (PUSAN NATIONAL UNIVERSITY INDUSTRY-UNIVERSITY COOPERATION …, priority 2008, dated 2016)
# Read-outs that look alike come from different tables or passages of the source.
# Legend:
# A549 and Capan-1 = assay: Expression of median (culture media) p53 in A549 and Capan-1; format: cell-based; details: A549 and Capan-1, FIG. 15B
# Description: (§1) Also, protease inhibitor (PMSF) and endocytosis inhibitor (Brefeldin A; BFA) were treated into A549 and Capan-1.
# A549 = assay: Location of recombinant p53 in A549 whole cell lysate (endocytosis); format: cell-based; details: A549, FIG. 15C
# Description: First, A549 and MKN 45 cells were treated with recombinant p53, and their locations were identified. In comparison with control protein (His-lamin A) recovered from media, His-p53 was expressed in whole cell lysate of A549 (FIG. 15A). In addition, His-p53 was completely removed from MKN45 cells and culture media thereof (FIG. 15A).
# as §1
# [1] = tested on: A549 (K-Ras mutant cancer cell line); assay: Cell death rate by tryphan blue cell counting, A549; format: cell-based; details: A549 (A546 [sic])
# Source text: (§2) To confirm that the p53 induction of the compounds is related to K-Ras, A549 and HCT116, which are K-Ras mutant cancer cell lines, and MKN45, which is K-Ras wild type cancer cell line, were used.
# MDA-MB 468 = assay: Western blot of p21 expression in mutant p53 MDA-MB 468 cells; format: cell-based, human; details: for Expression ratio of gene to control, p21: DMSO control = 1.0
# A549 cells = assay: Xenograft in vivo: A549 cells injected intraperitoneally into athymic mouse
# Description: Athymic mouse was obtained from Daehan Biolink Co. Ltd, and raised under temperature and light conditions (20-23° C., cycle of 12 hours light/12 hours darkness) and fed with sterile diet and water freely. After 2 weeks, 1×10^7 A549 cells were inoculated into the athymic mouse (n=21) by intraperitoneal injection. After 2 weeks, each group was divided into three subgroups and PBS, and 10 mg/kg or 20 mg/kg of the compound 5o were intraperitoneally injected once per week for 10 weeks, and vitality thereof was measured. This animal test was approved by the Animal Protection Committee of Pusan National University, and performed according to a guideline presented by the same.
# SNAIL-p53 binding = assay: GST pull down assay of SNAIL-p53 binding (Experimental Example 2); set-up: species or system human; details: FIG. 21
# Description: GST pull down assay is a method for identifying a binding degree of two proteins. GST-fused SNAIL protein and p53 recombinant protein were prepared and treated with the compound 5o or 7a to identify a binding degree of GST-SNAIL protein and p53 protein. […] If MDM2 is over-expressed, proteolysis of p53 is induced to suppress apoptosis occurring through target genes of p53, and an […] of cells is induced. Although MDM2 is a representative control factor of p53, MDM2 is not applied to K-Ras mutant disease or mutant p53 containing disease.
# To perform GST pull down assay, three human SNAIL fragments (residues 1-90, 91-112, and 113-264) and p53 fragments (1-93 and 93-292) were expressed in E. coli as GST-fusion protein. Each of the fragments was loaded on to GSH-agarose, washed, and then eluted using a buffer containing 20 mM reduced glutathione. The eluted fractions were purified using an anionexchange chromatography (HitrapQ). The recombinant human p53 protein (residues 94-292) was expressed in E. coli using the vector pET28A which contains a hexa-histidine tag at the C terminus. The p53 protein including the hexa-histidine tag was purified using Ni-NTA affinity and a size exclusion chromatography (Superdex 200). To confirm the direct binding between p53 and SNAIL, agarose-bead conjugated GST or GST-SNAIL was incubated with His-p539 (histidine-p53) in PBS for 45 minutes at 4° C.. After washing with PBS, the precipitated protein was subjected into SDS-PAGE and western blotting.
# [2] = tested on: HCT116 (K-Ras mutant cancer cell line); assay: Cell death rate by tryphan blue cell counting, HCT116; format: cell-based
# [3] = tested on: K-Ras mutant cancer cell lines HCT116; assay: Western blot of p53 and p21 expression in K-Ras mutant HCT116 cells; format: cell-based; details: Homo sapiens, HCT-116, HCT116, 10 μM
# Description: To confirm whether the compounds prepared according to Examples 1 to 5 are effective for inhibiting SNAIL-p53 binding at cell level, the compound was treated into K-Ras mutant cancer cell lines HCT116 and results were analyzed by western blotting.
# Oncogenic K-ras suppresses the p53 activity through SNAIL. In the cell line HCT116, SNAIL is always expressed by K-Ras mutation and bound to p53 to suppress normal activity of p53. If the K-Ras mutant cancer cell line HCT116 is treated with a compound for suppressing SNAIL-p53 binding, p53 is normally activated and more expressed, and target genes of p53 are induced.
# First, western blotting was performed to detect expression of p53 and p21, which is a target gene of p53. All cell lines used in the present invention were obtained from ATCC, and maintained in 10% FBS-containing RPMI-1640 or DMEM. Protein was extracted with RIPA buffer solution and a membrane loaded with cell lysate through typical SDS-PAGE and gel transfer method was prepared. After blocking with 5% non-fat dry milk, the membrane was subjected into a typical western blot procedure with an antibody corresponding to each gene. Antibodies used herein were obtained from Cell signaling, SantaCruz. p53 activity was confirmed by expression of p21, which is a target gene of p53.
# [4] = tested on: MKN45 (K-Ras wild type cancer cell line); assay: Cell death rate by tryphan blue cell counting, MKN45; format: cell-based
# Source text: as §2
# [5] = tested on: SNAIL-mediated p53 suppression; assay: Effect on SNAIL-mediated p53 reduction in transfected cells; format: cell-based; details: SNAIL (or K-Ras) transfected cells
# Description: Also, the effect of the chemicals on SNAIL-mediated p53 suppression was checked. As shown in FIGS. 10E and 10F, p53 reduction by co-transfection of SNAIL was blocked by treatment of chemicals by #3 and #9.
# The reduction of p53 by SNAIL was confirmed in real time (see FIG. 13D). Expression of p53 in culture-media was checked and within 2 hours, the expression of p53 in media was detected (see FIG. 13E). Moreover, p53 was detected in cytosol as a vesicle-like-structure in SNAIL or K-Ras transfected cells, and finally detected in an extracellular region (see FIG. 13F). Meanwhile, SNAIL was located in vesicle of cytosol with p53 (see FIG. 17A).
# Since p53 is reduced by vesicle-like transport, p53 expression was checked by disrupting cytoskeleton-network by Nocodazole (Noc). […] Despite of cytoplasmic vesicle-like staining of p53 in Noc-treated cells, cellular morphology was changed differentially from control cells (see FIG. 14B). Noc blocked the p53 reduction (see FIG. 14C). Median p53 was disappeared by Noc-treatment, whereas p53 was accumulated in cytoplasm as vesicle (see FIGS. 14D and 14E). Aph/Noc blocked the reduction of p53, which was not achieved by LMB (FIGS. 14F and 14G).
# SNAIL and p53 binding = assay: ELISA system for screening SNAIL-p53 binding inhibitors; set-up: species or system human; details: His-p53 (93-292) and GST SNAIL
# Description: To isolate SNAIL-p53 binding inhibitor, ELISA system was prepared. His-p53 (93-292) was immobilized on 96 well plates using 0.5 PFA. After drying and washing, the 96 well plates were incubated with GST SNAIL with 0.1 μM of chemicals (final concentration). After 1 hour incubation, the 96 well plates were washed with TBST and incubated with anti-GST-antibody (1: 10000, 45 min) and anti-mouse-IgG-HRP (1; 50000, 30 min). After washing twice, plates were incubated with a TMB solution and a stop solution. Measurement was performed using an ELISA plate reader.
# K-Ras mutated cells = assay: Cell death in K-Ras mutated cells; format: cell-based; details: FIG. 11D
# [6] = 10 mg/kg i.p. once per week for 10 weeks
# [7] = 20 mg/kg i.p. once per week for 10 weeks
structure (smiles),measurement,setting,value
C[C@H]1CCC/C=C/[C@@H]2C[C@H](O)C[C@H]2[C@H](O)/C=C/C(=O)O1 [Brefeldin A],Expression of median p53,A549 and Capan-1,increased expression of median p53
same,Location of recombinant p53 in whole cell lysate,A549,blocked the location of recombinant p53
"COc1ccc(OC)c2c1C(=O)C=C(SCCC(=O)O)C2=O [Compound 5o, 3-(5,8-dimethoxy-1,4-dioxo-naphthalen-2-ylthio)propanoic acid]",Cancer cell death rate of compounds with respect to control,[1]; 5 μM,30 ± 4.5%
same,Cancer cell death rate of compounds with respect to control,[1]; 20 μM,62 ± 1.7%
same,"Expression ratio of gene to control, p21","MDA-MB 468; MDA-MB 468, 5 μM",13.5
same,"Expression ratio of gene to control, p21","MDA-MB 468; MDA-MB 468, 10 μM",25.9
same,"Expression ratio of gene to control, p21","MDA-MB 468; MDA-MB 468, 20 μM",31.3
same,Expression of p21 (target gene of p53),"MDA-MB 468; p53 mutant-type MDA-MB 468, FIG. 23",strong
same,Tumor-caused death (survival),"A549 cells; 10 mg/kg and 20 mg/kg, 10 weeks, FIG. 24",tumor-caused death was prevented
same,Tumor development at tumor site A.C,A549 cells; [6],3 (regression)
same,Tumor development at tumor site Liver,A549 cells; [6],0
same,Tumor development at tumor site Lung,A549 cells; [6],0
same,Tumor development at tumor site Pancreas,A549 cells; [6],0
same,Tumor development at tumor site A.C,A549 cells; [7],2 (regression)
same,Tumor development at tumor site Liver,A549 cells; [7],0
same,Tumor development at tumor site Lung,A549 cells; [7],0
same,Tumor development at tumor site Pancreas,A549 cells; [7],0
same,Tumor in treated group,A549 cells; FIG. 25,almost no tumor
same,Overall anatomical abnormal finding according to weight loss or injection of the compound,A549 cells; FIG. 26,not observed
same,Binding between GST-SNAIL protein and p53,SNAIL-p53 binding,substantially weak
same,Cancer cell death rate of compounds with respect to control,[2]; 5 μM,35 ± 3.2%
same,Cancer cell death rate of compounds with respect to control,[2]; 20 μM,67 ± 2.5%
same,fold induction at 10 µM,"[3]; DMSO control = 1.0, read-out: Protein expression ratio of compound to control, p21",2.5
same,fold induction at 10 µM,"[3]; DMSO control = 1.0, read-out: Protein expression ratio of compound to control, p53",2.6
same,Cancer cell death rate of compounds with respect to control,[4]; 5 μM,10 ± 2.9%
same,Cancer cell death rate of compounds with respect to control,[4]; 20 μM,18 ± 1.9%
COC(=O)Nc1nc2ccc(C(=O)c3cccs3)cc2[nH]1 [Nocodazole],SNAIL-mediated p53 reduction,[5],blocked the SNAIL or K-Ras mediated p53 reduction
O=S(=O)(F)Cc1ccccc1 [PMSF],Expression of median p53,A549 and Capan-1,increased expression of median p53
O=c1c(O)c(-c2ccc(O)c(O)c2)oc2cc(O)cc(O)c12 [Quercetin],Inhibition of SNAIL and p53 binding,SNAIL and p53 binding,identified as an inhibitor of SNAIL-p53 interaction
COc1cc(/C=C/C(=O)O)ccc1O [ferulic acid],Cell death,K-Ras mutated cells,evoked cell death
CCC(=C/[C@H](C)C/C=C/C(C)=C/[C@@H](C)C(=O)[C@@H](C)[C@H](O)[C@@H](C)C/C(C)=C/C(=O)O)/C=C/[C@@H]1OC(=O)C=C[C@@H]1C [leptomycin B],SNAIL-mediated p53 reduction,[5],did not block the SNAIL-mediated p53 reduction
